Measurements as given in BindingDB's records for doi:10.1021/jm060314i (Cnrs, 2006).
pIC50: −log10 of the molar value. Where a name gives a salt, the structure may show the parent alone.

Each compound was assayed against 5L hepatoma cell line (Rattus norvegicus) (assay: Survival of rat 5L hepatoma cells after 48 hrs by MTS reduction assay).

**Q.** How did the pIC50 turn out when `CN(C)CCO/N=C1/C(c2c(O)[nH]c3c(Br)cccc23)=Nc2ccccc21` [(2'Z,3'E)-7-bromoindirubin-3'-[O-(2-dimethylaminoethyl)oxime] hydrochloride] was run?
**A.** < 4.52

**Q.** With `CN(C)CCO/N=C1/C(c2c(O)[nH]c3c(Br)cccc23)=Nc2ccccc21` [(2'Z,3'E)-7-bromoindirubin-3'-[O-(2-dimethylaminoethyl)oxime]] as the compound, how does the pIC50 read?
**A.** 4.60

**Q.** With `Oc1[nH]c2c(Br)cccc2c1C1=Nc2ccccc2/C1=N\OCCN1CCCC1` [(2'Z,3'E)-7-bromoindirubin-3'-[O-(2-pyrrolidin-1-ylethyl)oxime] hydrochloride] as the compound, how does the pIC50 read?
**A.** < 4.52
